# Test results as given in US6566088B1, “Prolyl-4-hydroxylases” (Board of Regents, The University of Texas System, priority 2001, dated 2003).
# Counter-ions that a name gives are not always drawn. Like-named read-outs stand apart in the source and are kept apart here.
# Assays:
# [1] = test system: prolyl-4-hydroxylase activity capable of modifying a proline-containing peptide derived from the ODD; conditions: cited from earlier work
# [2] = target: human HIF-1a ODD peptide (Homo sapiens, UniProt Q16665, M561A/M568A); assay: [35S]-pVHL pull-down prolyl hydroxylase assay with biotinylated HIF-1a ODD peptide; assay type: biochemical; conditions: enzyme in vitro transcribed/translated in rabbit reticulocyte lysate; ascorbate, 2-oxoglutarate, FeSO4 present
# [3] = target: T1, HPH 2 (Homo sapiens, UniProt Q9GZT9, DEL76-177); assay: Activity of purified recombinant HPH 2 on HIF-1a peptide substrate; assay type: biochemical; conditions: additive added (CoCl2 in excess)
# T1 construct: MBP (N); made in house; host or cells: E. coli BL21-CodonPlus-RIL
# T1 sequence (Q9GZT9 with tags, fused parts or gaps DEL76-177): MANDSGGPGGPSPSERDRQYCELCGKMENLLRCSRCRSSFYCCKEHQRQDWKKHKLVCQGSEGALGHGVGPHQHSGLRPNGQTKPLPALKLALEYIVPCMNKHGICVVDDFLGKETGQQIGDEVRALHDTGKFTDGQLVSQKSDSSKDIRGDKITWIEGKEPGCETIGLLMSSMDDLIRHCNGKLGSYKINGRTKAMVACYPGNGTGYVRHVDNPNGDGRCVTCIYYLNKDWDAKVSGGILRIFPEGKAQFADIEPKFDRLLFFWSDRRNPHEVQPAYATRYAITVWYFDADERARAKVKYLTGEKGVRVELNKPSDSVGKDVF
molecule,measurement,setting,value
CC(=O)N(O)CCCCCNC(=O)CCC(=O)N(O)CCCCCNC(=O)CCC(=O)N(O)CCCCCN [deferoxamine mesylate],prolyl-4-hydroxylase activity in extracts,[1]; extracts prepared in the presence of hypoxia mimics,greatly diminished
CoCl2,prolyl-4-hydroxylase activity in extracts,[1],greatly diminished
"HPH 3: human HPH 1 paralog, Genbank BC001723",prolyl hydroxylase activity (pVHL association with the biotinylated peptide),[2],catalyze the hydroxylation
O=S(=O)([O-])[O-].[Fe+2] [FeSO4],effect on activity of the HPH 2 enzyme,[3],greatly stimulated
